The text below walks through data of patent US20230399319A1, “Acylsulfamide Compound and Pharmaceutical Use Therefor” (Japan Tobacco Inc., priority 2019, published 2023).

As usually defined, the inhibition is the change of the read-out against control, counted positive when it falls. Broadly, the IC50 is the midpoint of a concentration-inhibition curve. A lower IC50 goes with greater potency in that assay.

The assay deals with NLRP3 inflammasome (Homo sapiens (Human), UniProt Q96P20). In words: Evaluation of NLRP3 inflammasome inhibitory activity (inhibition of IL-1β production in THP1-Null cells, LPS/Nigericin).
NLRP3 inflammasome, sequence (Q96P20 whole entry): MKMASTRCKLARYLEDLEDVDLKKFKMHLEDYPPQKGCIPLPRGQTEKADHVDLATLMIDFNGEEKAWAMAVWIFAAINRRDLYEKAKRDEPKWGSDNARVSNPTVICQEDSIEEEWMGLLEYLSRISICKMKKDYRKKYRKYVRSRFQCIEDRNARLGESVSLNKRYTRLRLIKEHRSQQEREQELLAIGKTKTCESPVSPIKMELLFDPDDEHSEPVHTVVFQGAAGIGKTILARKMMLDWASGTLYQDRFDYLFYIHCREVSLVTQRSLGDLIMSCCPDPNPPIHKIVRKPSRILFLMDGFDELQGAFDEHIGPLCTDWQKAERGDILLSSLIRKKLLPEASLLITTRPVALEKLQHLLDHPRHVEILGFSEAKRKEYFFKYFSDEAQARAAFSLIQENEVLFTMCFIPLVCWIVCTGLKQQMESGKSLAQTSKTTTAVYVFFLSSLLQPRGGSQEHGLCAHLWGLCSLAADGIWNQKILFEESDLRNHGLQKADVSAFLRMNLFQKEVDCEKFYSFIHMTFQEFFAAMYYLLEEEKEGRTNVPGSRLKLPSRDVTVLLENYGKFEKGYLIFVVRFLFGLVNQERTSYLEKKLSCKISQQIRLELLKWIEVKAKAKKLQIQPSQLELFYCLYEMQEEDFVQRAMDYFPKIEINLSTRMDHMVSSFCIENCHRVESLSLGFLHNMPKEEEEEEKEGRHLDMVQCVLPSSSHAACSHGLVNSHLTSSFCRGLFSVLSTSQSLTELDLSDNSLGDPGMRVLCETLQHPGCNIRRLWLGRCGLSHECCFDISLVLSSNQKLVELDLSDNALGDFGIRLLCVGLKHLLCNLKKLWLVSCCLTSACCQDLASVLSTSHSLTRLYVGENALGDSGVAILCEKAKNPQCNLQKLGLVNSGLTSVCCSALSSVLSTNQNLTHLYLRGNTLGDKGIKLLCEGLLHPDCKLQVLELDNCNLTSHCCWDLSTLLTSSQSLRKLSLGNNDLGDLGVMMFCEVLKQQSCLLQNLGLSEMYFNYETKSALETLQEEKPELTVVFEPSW
[1] abbreviates: inhibition of IL-1β production in THP1-Null cells.
Where [2] appears, read: IL-1β production in THP1-Null cells, PMA/LPS primed, Nigericin 7.5 μmol/L.

Read-outs that look alike come from different tables or passages of the source.

Method: The NLRP3 inflammasome inhibitory activity of test compounds were evaluated CM the basis of the inhibitory activity of the IL-1β, production in THP1-Null cells (Product Number: thp-null, InvivoGen).
A solution containing a test compound (20 μL/well) was added to test compound-setting wells. […] The supernatant of the culture was cryonically stored (set at −20° C.) until measurement of IL-1β.
The amount of IL-1β in the culture supernatant was quantitated with AlphaLISA IL1 beta kit (Product Number: AL220C, Perkin Elmer). […] Inhibition rates of the test compound-setting wells were calculated on the basis of 100% for the blank-setting wells and 0% for the control-setting wells.

On to `CC(C)Cc1nn(C(C)C)cc1Nc1nc(C(=O)NS(=O)(=O)N2CCCOCC2)co1` [Example 2-180], for which the inhibition at 3 µM (read-out: % inhibition at 3 μM) is -3%.

With `COCCOCC1CCN(S(=O)(=O)NC(=O)c2coc(Nc3cc(C)ccc3C)n2)CCO1` (stereo not drawn) [Example 2-345], under setting [1], the IC50 worked out at 71 nM.

Under setting [2], `CN(C)S(=O)(=O)NC(=O)c1coc(Nc2c3c(cc4c2CCC4)CCC3)n1` [Example 13] displayed an IC50 of 48 nM.

Take `CCCS(=O)(=O)N1CCCN(S(=O)(=O)NC(=O)c2coc(Nc3cc(C(F)(F)F)ccc3C)n2)CC1` [Example 2-100]: the 50% inhibitory concentration (IC50) under setting [1] came to 10 nM.

Under setting [1], `Cc1ccc(C(C)(C)C)cc1Nc1nc(C(=O)NS(=O)(=O)N(C)C)co1` [Example 2-069] yielded an IC50 of 66 nM. Against the preceding molecule, the IC50 is about 6.6-fold higher.

Take `CCN(C)C(=O)C1CCCN(S(=O)(=O)NC(=O)c2coc(Nc3cc(C(F)(F)F)ccc3C)n2)CC1` (racemic) [Example 2-246]: the IC50 came to 67 nM.

Consider `CC(C)c1ccc(C(F)F)cc1Nc1nc(C(=O)NS(=O)(=O)N2CCCN(S(=O)(=O)C3CCOC3)CC2)co1` (racemic) [Example 2-226], for which the IC50 stood at 97 nM.

In turn, `O=C(NS(=O)(=O)N1CCOCC1)c1coc(Nc2c3c(c(F)c4c2CCC4)CCC3)n1` [Example 53] came in with an IC50 under setting [2] of less than 30 nM.

Take `CCCS(=O)(=O)N1CCN(S(=O)(=O)NC(=O)c2coc(Nc3cc(C)ccc3C)n2)CC(OC)C1` (racemic) [Example 2-251]: half-maximal inhibition (IC50) was put at 32 nM.

`O=C(NS(=O)(=O)N1CCCOCC1)c1cnc(Nc2c3c(cc4c2CCC4)CCC3)o1` [Example 4] had an IC50 under setting [2] of 81 nM.

`O=C(NS(=O)(=O)N1CCCC1)c1cnc(Nc2c3c(cc4c2CCC4)CCC3)o1` [Example 6] had an IC50 under setting [2] of less than 30 nM.

For the molecule `C[C@@H]1CCCN1S(=O)(=O)NC(=O)c1coc(Nc2c3c(c(Cl)c4c2CCC4)CCC3)n1` [Example 45], the midpoint of inhibition under setting [2], the IC50, lay at 200 nM.

`CN(C)S(=O)(=O)NC(=O)c1cnc(Nc2c3c(c(Cl)c4c2CCC4)CCC3)o1` [Example 14]: under setting [2], the IC50 was 97 nM.

As to `CC1COCCN1S(=O)(=O)NC(=O)c1coc(Nc2c3c(cc4c2CCC4)CCC3)n1` (racemic) [Example 25], half-maximal inhibition (IC50) required 51 nM.

Regarding `Cc1ccc(C(F)(F)F)cc1Nc1nc(C(=O)NS(=O)(=O)N2CCOCC2c2ccccc2)co1` (racemic) [Example 2-346], the IC50 was 290 nM.

In the case of `O=C(NS(=O)(=O)N1CCS(=O)(=O)CC1)c1coc(Nc2c3c(c(Cl)c4c2CCC4)CCC3)n1` [Example 42], under setting [2], half-maximal inhibition (IC50) required 970 nM.

Under setting [1], `CCCC(=O)N1CCCN(S(=O)(=O)NC(=O)c2coc(Nc3cc(C(F)F)ccc3C(C)C)n2)CC1` [Example 2-223] returned an IC50 of 71 nM.

Turning to `COC1CN(S(=O)(=O)NC(=O)c2cnc(Nc3c4c(cc5c3CCC5)CCC4)o2)C1Cl` (racemic) [Example 12], the IC50 was found to be 4000 nM.

`CC(C)n1cc(Nc2nc(C(=O)NS(=O)(=O)N3CCCOCC3)co2)c(C2CCC2)n1` [Example 2-196] showed an IC50 under setting [1] of 2700 nM.

Consider `CC1(O)CCN(S(=O)(=O)NC(=O)c2coc(Nc3c4c(c(F)c5c3CCC5)CCC4)n2)C1` (racemic) [Example 33, 2-((8-fluoro-1,2,3,5,6,7-hexahydro-s-indacen-4-yl)amino)-N-((3-hydroxy-3-methylpyrrolidin-1-yl)sulfonyl)oxazole-4-carboxamide], for which the IC50 under setting [2] was determined as 99 nM. That is a double-digit nanomolar value.

For the molecule `Cc1ccc(C(C)(F)F)cc1Nc1nc(C(=O)NS(=O)(=O)N2CCOCC2)co1` [Example 2-015], the IC50 under setting [1] was 38 nM.

For `COC(=O)N1CCCN(S(=O)(=O)NC(=O)c2coc(Nc3cc(C(F)(F)F)ccc3C)n2)CC1` [Example 2-101], the IC50 under setting [1] amounted to 39 nM.

With `Cc1cc(F)c(C(F)(F)F)cc1Nc1nc(C(=O)NS(=O)(=O)N2CCCOCC2)co1` [Example 2-213], the midpoint of inhibition under setting [1], the IC50, lay at 39 nM. In other words, the double-digit nanomolar range.

Take `COC1COCCN(S(=O)(=O)NC(=O)c2coc(Nc3cc(C)ccc3C(C)C)n2)C1` (racemic) [Example 2-310]: half-maximal inhibition (IC50) was put at 98 nM. This counts as double-digit nanomolar.

Under setting [1], `Cc1ccc(C(F)(F)F)cc1Nc1nc(C(=O)NS(=O)(=O)N2CCCN(c3ccncn3)CC2)co1` [Example 2-214] showed an IC50 of 89 nM.

Molecule `COC1COCCN(S(=O)(=O)NC(=O)c2coc(Nc3cc(C(F)(F)F)c(F)cc3C)n2)C1` (racemic) [Example 2-244] showed an IC50 of 51 nM.

Under setting [1], `Cc1cn(C(C)C)nc1Nc1nc(C(=O)NS(=O)(=O)N2CCCOCC2)co1` [Example 2-147] yielded an IC50 of 420 nM.

`O=C(NS(=O)(=O)N1CCCC1C(F)(F)F)c1coc(Nc2c3c(c(Cl)c4c2CCC4)CCC3)n1` (racemic) [Example 40] registered an IC50 of 930 nM.

Under setting [1], `Cc1ccc2c(c1Nc1nc(C(=O)NS(=O)(=O)N3CCCOCC3)co1)CCC2` [Example 2-097] came in with an IC50 of 150 nM.

Under setting [2], `CC(C)N(C)S(=O)(=O)NC(=O)c1cnc(Nc2c3c(cc4c2CCC4)CCC3)o1` [Example 15] returned an IC50 of less than 30 nM.

Under setting [2], `CN1CCN(S(=O)(=O)NC(=O)c2coc(Nc3c4c(c(F)c5c3CCC5)CCC4)n2)CC1=O` [Example 64] gave an IC50 of 5700 nM.

Regarding `Cc1ccc(C(F)(F)F)cc1Nc1nc(C(=O)NS(=O)(=O)N2CCCN(c3nccc(C(C)C)n3)CC2)co1` [Example 2-186], the IC50 under setting [1] was 41 nM.

As to `Cc1ccc(C(F)(F)F)cc1Nc1nc(C(=O)NS(=O)(=O)N2CCC(=O)N(C)CC2)co1` [Example 2-093], half-maximal inhibition under setting [1] (IC50) was put at 59 nM. This IC50 and that of the molecule before are within 1.5-fold of each other.

With `O=C(NS(=O)(=O)N1CC2CCC(C1)O2)c1coc(Nc2c3c(c(F)c4c2CCC4)CCC3)n1` [Example 59], the IC50 under setting [2] came to 44 nM.

Molecule `Cc1ccc(C(C)C)cc1Nc1nc(C(=O)NS(=O)(=O)N2CCOCC2(C)C)co1` [Example 2-098] had an IC50 under setting [1] of 250 nM.

`Cc1ccc2c(c1Nc1nc(C(=O)NS(=O)(=O)N3CCCC3)co1)CCC2` [Example 31] gave an IC50 under setting [2] of 310 nM.

As for `COCC1CN(S(=O)(=O)NC(=O)c2coc(Nc3c4c(c(Cl)c5c3CCC5)CCC4)n2)CCO1` (racemic) [Example 38], it took 73 nM to reach half-maximal inhibition (IC50).

The molecule `Cc1ccc2c(c1Nc1nc(C(=O)NS(=O)(=O)N3CCOCC3)cs1)CCC2` [Example 2-084] showed an IC50 under setting [1] of 140 nM. This lies in the sub-micromolar range.

For the molecule `Cc1cn(C(C)C)nc1Nc1nc(C(=O)NS(=O)(=O)N(C)C)co1` [Example 2-039], under setting [1], the IC50 amounted to 500 nM.

In turn, `Cc1ccc(C(C)C)cc1Nc1nc(C(=O)NS(=O)(=O)N(C)C)cs1` [Example 2-054] displayed an IC50 under setting [1] of 52 nM.

In turn, `Cc1ccc(C(F)F)cc1Nc1nc(C(=O)NS(=O)(=O)N2CCCOCC2)co1` [Example 2-043] gave an IC50 under setting [1] of 49 nM.

Turning to `COCC1CCN(S(=O)(=O)NC(=O)c2coc(Nc3cc(C)ccc3C(C)C)n2)CCO1` (stereo not drawn) [Example 2-309], under setting [1], inhibition was half-maximal at 39 nM (IC50).

Under setting [1], `CCCS(=O)(=O)N1CCCN(S(=O)(=O)NC(=O)c2coc(Nc3cc(C)cc(C)c3C)n2)CC1` [Example 2-288] showed an IC50 of 120 nM.

For the molecule `O=C(NS(=O)(=O)N1CC2CCC(C1)O2)c1coc(Nc2c3c(c(Cl)c4c2CCC4)CCC3)n1` [Example 51], under setting [2], the IC50 is less than 30 nM.

In turn, `COC1CN(S(=O)(=O)NC(=O)c2coc(Nc3cc(C(F)(F)F)ccc3C)n2)C1` [Example 2-057] displayed an IC50 under setting [1] of 570 nM.

Turning to `CCOCC1CCN(S(=O)(=O)NC(=O)c2coc(Nc3cc(C(C)C)ccc3C)n2)CCO1` (stereo not drawn) [Example 2-325], half-maximal inhibition under setting [1] (IC50) required 25 nM.

`Cc1ccc2c(c1Nc1nc(C(=O)NS(=O)(=O)N3CCCOCC3)cs1)CCC2` [Example 2-085] displayed an IC50 under setting [1] of 120 nM.

Consider `CCCS(=O)(=O)N1CCCN(S(=O)(=O)NC(=O)c2coc(Nc3cc(C)ccc3C)n2)CC1` [Example 2-228], for which, under setting [1], the IC50 stood at 28 nM. This IC50 lies about 4.3-fold lower than the previous one.

`Cc1ccc(C(F)(F)F)cc1Nc1nc(C(=O)NS(=O)(=O)N2CCCN(c3ncccn3)CC2)co1` [Example 2-183] returned an IC50 under setting [1] of 15 nM.

In turn, `COc1ccc(C(F)(F)F)cc1Nc1nc(C(=O)NS(=O)(=O)N2CCCOCC2)co1` [Example 2-137] had an IC50 under setting [1] of 130 nM.

As for `CC(C)c1cn(C(C)C)nc1Nc1nc(C(=O)NS(=O)(=O)N2CCCOCC2)co1` [Example 2-116], the concentration for half-maximal inhibition (IC50) under setting [1] was 85 nM.

On to `CCCS(=O)(=O)N1CCCN(S(=O)(=O)NC(=O)c2coc(Nc3cc(Br)ccc3C)n2)CC1` [Example 2-292], for which the IC50 under setting [1] amounted to 34 nM.

As to `CC(C)c1ccc(C(C)C)c(Nc2nc(C(=O)NS(=O)(=O)N(C)C)co2)c1` [Example 2-070], half-maximal inhibition under setting [1] (IC50) required 120 nM.

Take `Cc1ccc(Br)cc1Nc1nc(C(=O)NS(=O)(=O)N2CCCOCC2)co1` [Example 2-140]: under setting [1], it took 74 nM to reach half-maximal inhibition (IC50).

Consider `CCC1CN(S(=O)(=O)NC(=O)c2cnc(Nc3c4c(cc5c3CCC5)CCC4)o2)CCO1` (racemic) [Example 16], for which the IC50 is less than 30 nM.

The molecule `CCCS(=O)(=O)N1CCCN(S(=O)(=O)NC(=O)c2coc(Nc3cc(CC)ccc3CC)n2)CC1` [Example 2-258] had an IC50 under setting [1] of 18 nM. This counts as double-digit nanomolar.

Under setting [1], `CCc1ccc(C(F)(F)F)cc1Nc1nc(C(=O)NS(=O)(=O)N2CCCOCC2)co1` [Example 2-059] gave an IC50 of less than 30 nM.

Under setting [1], `CC(C)n1cc(Nc2nc(C(=O)NS(=O)(=O)N3CCCOCC3)co2)c(C(F)(F)F)n1` [Example 2-169] came in with an IC50 of 1700 nM.

For `COCCN(C(C)C)S(=O)(=O)NC(=O)c1coc(Nc2cc(C(F)(F)F)ccc2C)n1` [Example 2-048], the IC50 under setting [1] is less than 30 nM.

Molecule `Cn1cc(N(C2CCOCC2)S(=O)(=O)NC(=O)c2cnc(Nc3c4c(cc5c3CCC5)CCC4)o2)cn1` [Example 18] came in with an IC50 under setting [2] of 5400 nM.

For the molecule `Cc1ccc(C(F)(F)F)cc1Nc1nc(C(=O)NS(=O)(=O)N2CCCC2)co1` [Example 76], the IC50 under setting [2] is 92 nM.

`Cc1ccc(C2CC2)cc1Nc1nc(C(=O)NS(=O)(=O)N2CCOCC2)co1` [Example 2-001] showed an IC50 under setting [1] of 63 nM.

Turning to `Cc1ccc(CC(F)(F)F)cc1Nc1nc(C(=O)NS(=O)(=O)N2CCCOCC2)co1` [Example 2-063], the IC50 under setting [1] came out at 67 nM.

Take `CC(C)c1cn(C(C)C)nc1Nc1nc(C(=O)NS(=O)(=O)N(C)C(C)C)co1` [Example 2-138]: the IC50 under setting [1] is 92 nM.

The molecule `CC(C)c1cn(C(C)C)nc1Nc1nc(C(=O)NS(=O)(=O)N2CCOCCC2C)co1` (racemic) [Example 2-184] returned an IC50 of 140 nM. In other words, the sub-micromolar range.

For the molecule `Cc1ccc(C(F)F)cc1Nc1nc(C(=O)NS(=O)(=O)N2CCOC(COC(F)F)CC2)co1` (stereo not drawn) [Example 2-328], the IC50 under setting [1] is 30 nM.
